Results taken from patent publication US20130065868A1, “ANXIOYTIC MARCGRAVIACEAE COMPOSITIONS CONTAINING BETULINIC ACID, BETULINIC ACID DERIVATIVES, AND METHODS” (UNIVERSITY OF OTTAWA, priority 2002, published 2013).

Tests used:
[1] = Elevated plus maze, betulinic acid vs structurally related compounds (Example 11); assay type: in vivo
From the text: This example compares the anxiolytic activity of betulinic acid and some other structurally related compounds. Results are illustrated in FIG. 7.

Solubility = assay type: physicochemical; details: in water and in methanol
[2] = Weight gain over chronic treatment; assay type: in vivo, rat; details: rats, chronic 0.5 mg/kg daily orally (FIG. 12)
Sprague Dawley rats = assay: Locomotor activity after chronic administration; assay type: in vivo, rat; details: chronic 0.5 mg/kg daily orally, one night 5 p.m. to 7 a.m. (FIG. 11)
Description: Test animals and drug treatments were as in Example 14. Locomotor activity was recorded for one night (5 p.m. to 7 a.m. the following morning) in the control as well as in the betulinic acid and methyl ester of betulinic acid exposed groups. Locomotor activity was monitored using infrared sensors located on the roof of the animals' cage. Eight independent sensors monitored activity of animals according to the number of quadrants traversed.

Sprague-Dawley rats = assay: Rat social interaction paradigm; assay type: in vivo; details: 0.5 mg/kg i.p.
From the text: The rat social interaction paradigm takes advantage of rats' natural behaviour in novel situations. The more ‘anxious’ the animals are, the less likely they are engage in social interaction with the cohort. Anxiolytic drugs typically increase the amount of time rodents spend socially interacting with one another. (Pile, S. E., (1980). The use of social interaction as a method for detecting anxiolytic activity of chlor-diazepoxide-like drugs. In Current Protocols in Neuroscience (pp. 8.3.3-8.3.4), John-Wiley & Sons).
The social-interaction (SI) test arena constituted of a 60×60 cm white Plexiglas floor, enclosed by 35-cm high walls of the same material. The arena was surrounded by black curtain, and a closed circuit camera was positioned above the setup, to feed live video signals to the experimenter seated in a separate room, for behavioral assessment and recording.
Each rat was placed alone in the SI box for 7.5 min daily for 2 days, in order to familiarize the animals with the test environment. Animals were paired according to their body weights (less than 10 g difference) and each pair was randomly assigned to one of the treatment groups. Rats received either betulinic acid 0.5 mg/kg i.p., betulinic acid methyl ester (methyl betulinate) 0.5 mg/kg i.p., or peanut oil only (control). Drugs were injected (i.p.) 60 min prior to testing. Tests were carried out at three intervals, 1 h, 2.5 h and 4 h after injection. Each pair was tested at the 1-h interval, then new pairs from within the same drug group were formed for the 2.5-h interval and then again at the 4-h interval (new pairs were formed for each test interval, to control for the potential confounding effect partner familiarity). […] The behaviors scored included the amount of time the pairs spent interacting together (sniffing, grooming and chasing) as well as the number of times the animals initiated contact.

CC1(C)CC[C@]2(C)CC[C@]3(C)C(=CC[C@@H]4[C@@]5(C)CC[C@H](O)C(C)(C)[C@@H]5CC[C@]43C)[C@@H]2C1 [beta-amyrin]
anxiolytic activity on the elevated plus maze paradigm ([1]; 5 mg/kg (FIG. 7)): neither beta-amyrin (5 mg/kg) nor oleanolic acid (0.5 mg/kg), two compounds structurally related to betulinic acid, displayed any anxiolytic activity

CC1(C)CC[C@]2(C(=O)O)CC[C@]3(C)C(=CC[C@@H]4[C@@]5(C)CC[C@H](O)C(C)(C)[C@@H]5CC[C@]43C)[C@@H]2C1 [oleanolic acid]
anxiolytic activity on the elevated plus maze paradigm ([1]; 0.5 mg/kg): neither beta-amyrin (5 mg/kg) nor oleanolic acid (0.5 mg/kg), two compounds structurally related to betulinic acid, displayed any anxiolytic activity

C=C(C)C1CCC2(C(=O)[O-])CCC3(C)C(CCC4C5(C)CCC(O)C(C)(C)C5CCC43C)C12.[Na+] (centres unmarked) [sodium salt of betulinic acid]
solubility relative to pure betulinic acid (Solubility): greater in water and in methanol than pure betulinic acid

C=C(C)[C@@H]1CC[C@]2(C(=O)OC)CC[C@]3(C)[C@H](CC[C@@H]4[C@@]5(C)CC[C@H](O)C(C)(C)[C@@H]5CC[C@]43C)[C@@H]12 [betulinic acid methyl ester, Methyl betulinate]
effect of chronic drug treatment on weight gain [2]: did not seem to affect weight gain in a significant manner
adverse effect on locomotor activity or pattern (Sprague Dawley rats): neither betulinic acid nor the methyl ester of betulinic acid had an adverse effect on locomotor activity or pattern
frequency of initiated contact (Sprague-Dawley rats): not significant
amount of social interaction (interaction time) compared to the control group (Sprague-Dawley rats; data collapsed across 1 h, 2.5 h and 4 h (FIG. 8)): significantly increased the amount of social interaction
increase of social interaction compared to betulinic acid (Sprague-Dawley rats; p<0.05): significantly more effective at increasing social interaction than betulinic acid
